Entries after “also recorded” stand apart in the source; their conditions may differ.
Columns and labels:
[1] = biological target: T1, hSLC19A3-wt overexpressed in Expi293F cells (Homo sapiens, UniProt Q9BZV2); experiment: Mass spectrometry-based cellular thiamine-d3 uptake assay; assay type: cell-based; conditions: 200 μM compound, 2 μM thiamine-d3, 5 min, n = 3
T1 construct: full-length, wildtype human SLC19A3; expressed in transfected cells; host or cells: Expi293F
Protocol: The cells were then pelleted for 5 min at 250×g and resuspended in 1×PBS (pH 7.4) at a cell density of 2 million cells per mL. The cell suspension was subsequently transferred to a 96-deep well plate in three technical replicates per condition (n = 3, 1 mL per well, corresponding to 2 million cells per condition). 200 μM of the selected compounds were added to the respective wells and the cells were incubated for 1 min on a shaking platform. […] Afterwards, the cells were pelleted for 5 min at 500×g and washed 3× with 1 mL 1×PBS (pH7.4), before transferring them to a fresh 96-deep well plate. The cell pellets were stored at –70 °C. For the LC-MS/MS analysis, the samples were extracted by adding 500 µL of a mixture of H2O:MeOH:ACN (1:1:1, v/v), containing 5% (v/v) formic acid. After vortexing and ultrasonication in a water bath for 5 min at 4 °C, samples were incubated for 20 min at –20 °C. […] The supernatants were then transferred for LC-MS analysis, which was initiated within one hour after sample preparation. LC-MS/MS analysis was performed on a Vanquish UHPLC system coupled to an Orbitrap Exploris 240 high-resolution mass spectrometer (Thermo Fisher Scientific, MA, USA) in positive ESI (electrospray ionization) mode. Chromatographic separation was carried out on an Atlantis Premier BEH Z-HILIC column (Waters, MA, USA; 2.1 mm × 100 mm, 1.7 µm) at a flow rate of 0.25 mL/min. The mobile phase consisted of water:acetonitrile (9:1, v/v; mobile phase phase A) and acetonitrile:water (9:1, v/v; mobile phase B), which were modified with a total buffer concentration of 10 mM ammonium formate. The aqueous portion of each mobile phase was adjusted to pH 3.0 via addition of formic acid. The following gradient (8 min total run time including re-equilibration) was applied (time [min]/%B): 0/90, 3/85, 3.5/60, 4/60, 5/90, 8/90. Column temperature was maintained at 40 °C, the autosampler was set to 4 °C and sample injection volume was set to 3 µL. Analytes were recorded via a full scan with a mass resolving power of 120,000 over a mass range from 60 to 900 m/z (scan time: 100 ms, RF lens: 70%).
All experimental samples were measured in a randomized manner. Pooled quality control (QC) samples were prepared by mixing equal aliquots from each processed sample. Multiple QCs were injected at the beginning of the analysis in order to equilibrate the analytical system. A QC sample was analyzed after every 6th experimental sample to monitor instrument performance throughout the sequence. For determination of background signals and subsequent background subtraction, an additional processed blank sample was recorded. Data was processed using TraceFinder 5.1 and raw peak area data was exported for relative metabolite quantification.

hSLC19A3-wt = biological target: T2, hSLC19A3-wt (Homo sapiens, UniProt Q9BZV2); experiment: nanoDSF thermal shift assay / apparent binding affinity, wildtype transporter; conditions: for thermal shift / interaction with hSLC19A3, in words: thermal shift screen at 20 μM and 200 μM compound
T2 construct: full-length, wildtype human SLC19A3; made in house; host or cells: Expi293F
Protocol: The thermal stability of the hSLC19A3 constructs and their binding affinities for small molecules were determined by nanoDSF, using a Prometheus NT.48 (NanoTemper Technologies). For sample preparation, the protein was diluted to a final concentration of 4 μM in SEC buffer and supplied with the respective compounds in a concentration range from 2 μM to 2 mM. Before measurement, the samples were incubated for 30 min at room temperature. Melting scans were performed at a temperature range from 20 to 95 °C with a temperature increment of 1 °C per minute. Thermal unfolding curves were recorded by measuring the ratio of the tryptophan-fluorescence at 350 nm (F350) and 330 nm (F330). The protein melting temperature (Tm) of a given sample was determined as the inflection point of the thermal unfolding curves, or the local maximum of its first derivative. The measured curves were analysed using the manufacturer’s software (PR.ThermControl, v 2.1.2, NanoTemper Technologies). Based on the determined Tm values, ligand induced thermal shifts (ΔTm) were determined as the difference between the melting temperature of the ligand-bound state (Tm) and the apo state (Tm^apo).
As R, Tstd and L are known and the ΔTm and Tm^apo are experimentally determined, non-linear curve fitting can be used to estimate Ea1 and Kd,app.

SLC19A3 = conditions: cited from earlier work
[2] = biological target: glycosylation-free mutant of hSLC19A3 (hSLC19A3-gf) (human, UniProt Q9BZV2 1-496, Asn45 mutated to glutamine | Asn166 mutated to glutamine); experiment: BLI
Chain of glycosylation-free mutant of hSLC19A3 (hSLC19A3-gf) (Q9BZV2 other isoform, or with tags, fused parts or gaps with the stated changes): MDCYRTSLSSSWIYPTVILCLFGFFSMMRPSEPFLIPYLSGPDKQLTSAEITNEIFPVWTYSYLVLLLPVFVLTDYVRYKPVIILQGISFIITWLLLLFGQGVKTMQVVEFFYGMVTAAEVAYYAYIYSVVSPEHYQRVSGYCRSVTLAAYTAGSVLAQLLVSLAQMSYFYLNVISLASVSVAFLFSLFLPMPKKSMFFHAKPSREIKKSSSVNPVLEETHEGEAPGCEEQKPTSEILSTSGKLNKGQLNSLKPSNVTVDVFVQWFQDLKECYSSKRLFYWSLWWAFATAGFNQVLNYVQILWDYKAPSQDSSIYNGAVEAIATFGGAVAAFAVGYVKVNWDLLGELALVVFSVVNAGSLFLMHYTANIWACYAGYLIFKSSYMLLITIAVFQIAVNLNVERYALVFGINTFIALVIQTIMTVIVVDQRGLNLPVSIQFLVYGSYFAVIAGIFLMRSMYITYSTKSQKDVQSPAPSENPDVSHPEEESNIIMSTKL

T2 sequence (Q9BZV2 with tags, fused parts or gaps): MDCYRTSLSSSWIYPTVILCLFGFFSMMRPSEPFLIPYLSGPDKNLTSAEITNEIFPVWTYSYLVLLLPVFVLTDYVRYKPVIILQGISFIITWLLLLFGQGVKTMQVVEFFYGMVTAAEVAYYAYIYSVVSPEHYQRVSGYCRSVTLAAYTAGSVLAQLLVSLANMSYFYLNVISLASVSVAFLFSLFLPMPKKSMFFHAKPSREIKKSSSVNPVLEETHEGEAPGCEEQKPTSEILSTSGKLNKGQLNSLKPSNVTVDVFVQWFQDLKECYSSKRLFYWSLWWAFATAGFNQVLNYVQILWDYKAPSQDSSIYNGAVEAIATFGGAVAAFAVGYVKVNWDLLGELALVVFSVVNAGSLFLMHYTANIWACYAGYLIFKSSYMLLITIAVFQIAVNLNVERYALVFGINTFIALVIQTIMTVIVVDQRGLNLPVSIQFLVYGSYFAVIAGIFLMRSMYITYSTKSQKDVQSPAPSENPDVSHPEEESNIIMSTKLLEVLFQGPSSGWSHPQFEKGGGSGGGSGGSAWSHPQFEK
T1 sequence (Q9BZV2 with tags, fused parts or gaps): as above

Molecule	inhibition of thiamine uptake through hSLC19A3, in words [1]	thermal shift / interaction with hSLC19A3, in words (hSLC19A3-wt)	further results
CN(C)CCC=C1c2ccccc2CCc2ccccc21 [amitriptyline]	inhibit its thiamine transport activity	destabilize the transporter in a concentration-dependent manner	–
CCCc1ncc(C[n+]2ccccc2C)c(N)n1 [amprolium]	–	strongly stabilised the transporter against heat unfolding in a concentration-dependent manner	–
CCS(=O)(=O)N1CC(CC#N)(n2cc(-c3ncnc4[nH]ccc34)cn2)C1 [baricitinib]	–	did not stabilise hSLC19A3	–
O=C(O)CCCC[C@@H]1SC[C@@H]2NC(=O)N[C@@H]21 [biotin]	–	does not interact with the transporter	–
CN(C)CCCC1(c2ccc(F)cc2)OCc2cc(C#N)ccc21 (stereo not drawn) [citalopram]	interferes with thiamine uptake	also interact with hSLC19A3	–
Cc1nc(Nc2ncc(C(=O)Nc3c(C)cccc3Cl)s2)cc(N2CCN(CCO)CC2)n1 [dasatinib]	interfered with thiamine-uptake through hSLC19A3	–	–
CN(C)CCC=C1c2ccccc2COc2ccccc21 [doxepin]	inhibit its thiamine transport activity	destabilize the transporter in a concentration-dependent manner	–
COc1cc2ncnc(Nc3ccc(F)c(Cl)c3)c2cc1OCCCN1CCOCC1 [gefitinib]	interfered with thiamine-uptake through hSLC19A3	–	–
CCN(CCO)CCCC(C)Nc1ccnc2cc(Cl)ccc12 (stereo not drawn) [hydroxychloroquine]	–	strongly stabilises hSLC19A3	Kd (hSLC19A3-wt): 170 ± 55 nM
Cc1ccc(NC(=O)c2ccc(CN3CCN(C)CC3)cc2)cc1Nc1nccc(-c2cccnc2)n1 [imatinib]	interfered with thiamine-uptake through hSLC19A3; also recorded: inhibitory effect comparable to the one of fedratinib	strongly stabilized hSLC19A3	Kd (hSLC19A3-wt): 4400 ± 500 nM
CN(C)CCCN1c2ccccc2CCc2ccccc21 [imipramine]	inhibit its thiamine transport activity	destabilize the transporter in a concentration-dependent manner	–
N#CCNC(=O)c1ccc(-c2ccnc(Nc3ccc(N4CCOCC4)cc3)n2)cc1 [momelotinib]	–	did not stabilise hSLC19A3	–
Cc1ncc(C[n+]2csc(CCO)c2C)c(=O)[nH]1 [oxythiamine]	–	strongly decreased affinity and a lower thermostabilisation of the transporter; also recorded: stabilises the transporter only weakly	–
CCc1nc(N)nc(N)c1-c1ccc(Cl)cc1 [pyrimethamine]	–	–	ΔTm at 20 µM (hSLC19A3-wt; read-out: ΔTm (thermostabilisation)): 9.3 ± 0.5 °C
CN[C@H]1CC[C@@H](c2ccc(Cl)c(Cl)c2)c2ccccc21 [sertraline]	–	–	ΔTm (hSLC19A3-wt; at low micromolar concentrations, nanoDSF): 2.5 ± 0.4 °C
Cc1ncc(C[n+]2csc(CCOP(=O)(O)O)c2C)c(N)n1 [thiamine-p, thiamine monophosphate]	–	strongly reduced affinity	–
Cc1ncc(C[n+]2csc(CCO[P@](=O)(O)OP(=O)(O)O)c2C)c(N)n1 [thiamine-pp, thiamine pyrophosphate]	–	does not stabilise the transporter at all	–
C[C@@H]1CCN(C(=O)CC#N)C[C@@H]1N(C)c1ncnc2[nH]ccc12 [tofacitinib]	shows no inhibitory effect on thiamine transport	stabilising hSLC19A3	–
COc1cc(Cc2cnc(N)nc2N)cc(OC)c1OC [trimethoprim]	–	–	substrate status at the transporter (SLC19A3): xenobiotic substrates of the transporter
nanobody Nb3.7 (VHH) VHH: QVQLVESGGGLVQPGDSLRLSCAASGRTFSINAMAWFRQAPGKEREYVAQISWTGGNTYYAESVKGRFTISRDNAKNTVYLQMISLKPEDTAVYYCAADSGGIRLGASRWNYWGQGTQVTVSS	–	–	Kd [2]: 110 nM
nanobody Nb3.3 (VHH) VHH: QVQLVESGGGLVQAGDSLRLSCAASGRTFSNYYMAWFRQAPGKEREFVAAIRLSYGSTYYADSVRGRFTISKDNAKNTVNLRMNSLKSEDTAIYYCAAAEDRWALAVRTATTYNYWGQGTQVTVSS	–	–	Kd [2]: 200 nM
nanobody Nb3.4 (VHH) VHH: QVQLVESGGGLVQAGDSLRLSCAASGLTFSRYDMAWFRQAPGKEREFVAAITWTGSITDYADSVKGRFTISRDNAKNTIYLQMNSLKPEDTAVYYCAAAQVPYGSTLKFNLRTLFGSWGQGTQVTVSS	–	–	Kd [2]: 280 nM
